In the Kinase Knowledgebase extract (Sharma et al. 2016):

The compounds below were run against MAPK14 (UniProt Q16539) (assay: Inhibition of MAPK14 Kinase Activity).
MAPK14, sequence (Q16539 whole entry, looked up): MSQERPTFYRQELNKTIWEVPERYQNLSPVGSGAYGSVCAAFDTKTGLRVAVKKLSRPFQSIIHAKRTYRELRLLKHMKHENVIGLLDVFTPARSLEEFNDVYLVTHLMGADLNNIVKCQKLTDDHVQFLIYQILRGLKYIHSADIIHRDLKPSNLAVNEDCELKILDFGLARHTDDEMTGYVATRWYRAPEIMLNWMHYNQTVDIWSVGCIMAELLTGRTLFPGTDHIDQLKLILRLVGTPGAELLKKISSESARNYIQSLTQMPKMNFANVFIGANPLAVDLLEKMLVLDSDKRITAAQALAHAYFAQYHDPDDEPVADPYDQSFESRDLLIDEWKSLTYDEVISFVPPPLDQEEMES

IC50, ≤ 5 µM:
CC(C)S(=O)(=O)n1c(N)nc2ccc(-c3nc(-c4cccc(Cl)c4)[nH]c3-c3ccccc3)cc21
CC(C)S(=O)(=O)n1c(N)nc2ccc(-c3nc(C4CCN(CCO)CC4)[nH]c3-c3ccccc3)cc21
CCOC(=O)/C=C/c1nc(-c2ccc3nc(N)n(S(=O)(=O)C(C)C)c3c2)c(-c2ccccc2)[nH]1
CC(C)S(=O)(=O)n1c(N)nc2ccc(-c3nc[nH]c3-c3cccc(F)c3)cc21
Cc1nc(-c2ccc3nc(N)n(S(=O)(=O)C(C)C)c3c2)c(-c2ccc(F)cc2F)[nH]1
CC(C)S(=O)(=O)n1c(N)nc2ccc(-c3nc(-c4cc(F)ccc4F)[nH]c3-c3ccccc3)cc21
CC(C)S(=O)(=O)n1c(N)nc2ccc(-c3nc(-c4cccc(F)c4F)[nH]c3-c3ccccc3)cc21
CC(C)S(=O)(=O)n1c(N)nc2ccc(-c3c(-c4ccccc4)nc(-c4cccs4)n3C)cc21
CC(C)S(=O)(=O)n1c(N)nc2ccc(-c3nc[nH]c3-c3cccc(C(F)(F)F)c3)cc21
CC(C)S(=O)(=O)n1c(N)nc2ccc(-c3c(-c4ccccc4)ncn3-c3ccc([N+](=O)[O-])cc3)cc21
CCc1ccc(-c2nc(-c3ccc4nc(N)n(S(=O)(=O)C(C)C)c4c3)c(-c3ccc(F)cc3)[nH]2)s1
CC(C)S(=O)(=O)n1c(N)nc2ccc(-c3nc(CNCCN(C)C)[nH]c3-c3ccccc3)cc21
CC(C)S(=O)(=O)n1c(N)nc2ccc(-c3nc(-c4ccc(Cl)cc4)[nH]c3-c3ccccc3)cc21
Cc1cccn2c(-c3ccc4nc(N)n(S(=O)(=O)C(C)C)c4c3)c(-c3ccccc3)nc12
CC(C)S(=O)(=O)n1c(N)nc2ccc(-c3c(-c4ccccc4)ncn3Cc3cccnc3)cc21
CC(C)S(=O)(=O)n1c(N)nc2ccc(-c3nc(-c4c(Cl)cccc4Cl)[nH]c3-c3ccc(F)cc3)cc21
COc1ccc(C2N=C3C(C)=CC=CN3C2c2ccc3nc(N)n(S(=O)(=O)C(C)C)c3c2)cc1 (stereo not given)
CC(C)S(=O)(=O)n1c(N)nc2ccc(-c3c(-c4ccccc4F)nc(N=[N+]=[N-])n3C3CC3)cc21
CC(C)N1CCC(n2cnc(-c3ccccc3)c2-c2ccc3nc(N)n(S(=O)(=O)C(C)C)c3c2)CC1
Cc1nc(-c2ccc3nc(N)n(S(=O)(=O)C(C)C)c3c2)c(-c2ccc(F)cc2F)n1Cc1ccccc1
